Experimental data published in ChEMBL document CHEMBL4699561, “Cytotoxic Germacranolides from the Whole Plant of Carpesium minus” (J Nat Prod, 2020).

Legend:
A549 = test: Cytotoxicity against human A549 cells assessed as reduction in cell viability by MTT assay; assay type: functional, cell-based
MDA-MB-231 = test: Cytotoxicity against human MDA-MB-231 cells assessed as reduction in cell viability by MTT assay; assay type: functional, cell-based
HCT-116 [1] = test: Cytotoxicity against human HCT-116 cells assessed as reduction in cell viability by MTT assay; assay type: functional, cell-based
HCT-116 [2] = test: Induction of apoptosis in human HCT-116 cells assessed as viable cells at 16 uM after 24 hrs by Annexin V-FITC/propidium iodide staining based flow cytometric analysis (reference value: 87.8%); assay type: functional; settings: read-out: Activity
HCT-116 [3] = test: Induction of apoptosis in human HCT-116 cells assessed as early apoptotic cells at 8 uM after 24 hrs by Annexin V-FITC/propidium iodide staining based flow cytometric analysis (reference value: 5.3%); assay type: functional
HCT-116 [4] = test: Induction of apoptosis in human HCT-116 cells assessed as viable cells at 4 uM after 24 hrs by Annexin V-FITC/propidium iodide staining based flow cytometric analysis (reference value: 87.8%); assay type: functional; settings: read-out: Activity
HCT-116 [5] = test: Induction of apoptosis in human HCT-116 cells assessed as early apoptotic cells at 16 uM after 24 hrs by Annexin V-FITC/propidium iodide staining based flow cytometric analysis (reference value: 5.3%); assay type: functional
HCT-116 [6] = test: Induction of apoptosis in human HCT-116 cells assessed as early apoptotic cells at 4 uM after 24 hrs by Annexin V-FITC/propidium iodide staining based flow cytometric analysis (reference value: 5.3%); assay type: functional
HCT-116 [7] = test: Induction of apoptosis in human HCT-116 cells assessed as increase in cleaved-caspace-3 protein expression after 24 hrs by Western blot analysis; assay type: functional, cell-based; settings: dose microM 4-16, time 24.0 hrs
HCT-116 [8] = test: Induction of apoptosis in human HCT-116 cells assessed as apoptotic cells after 24 hrs by Annexin V-FITC/propidium iodide staining based flow cytometric analysis; assay type: functional, cell-based; settings: dose microM 4-16, time 24.0 hrs
HCT-116 [9] = test: Induction of apoptosis in human HCT-116 cells assessed as late apoptotic cells at 4 uM after 24 hrs by Annexin V-FITC/propidium iodide staining based flow cytometric analysis (reference value: 6.5%); assay type: functional
HCT-116 [10] = test: Induction of apoptosis in human HCT-116 cells assessed as late apoptotic cells at 8 uM after 24 hrs by Annexin V-FITC/propidium iodide staining based flow cytometric analysis (reference value: 6.5%); assay type: functional
HCT-116 [11] = test: Induction of apoptosis in human HCT-116 cells assessed as increase in cleaved-caspace-7 protein expression after 24 hrs by Western blot analysis; assay type: functional, cell-based; settings: dose microM 4-16, time 24.0 hrs
HCT-116 [12] = test: Induction of apoptosis in human HCT-116 cells assessed as necrotic cells at 4 uM after 24 hrs by Annexin V-FITC/propidium iodide staining based flow cytometric analysis (reference value: 0.4%); assay type: functional
HCT-116 [13] = test: Induction of apoptosis in human HCT-116 cells assessed as viable cells at 8 uM after 24 hrs by Annexin V-FITC/propidium iodide staining based flow cytometric analysis (reference value: 87.8%); assay type: functional; settings: read-out: Activity
HCT-116 [14] = test: Induction of apoptosis in human HCT-116 cells assessed as increase in cleaved-PARP protein expression after 24 hrs by Western blot analysis; assay type: functional, cell-based; settings: dose microM 4-16, time 24.0 hrs
HCT-116 [15] = test: Induction of apoptosis in human HCT-116 cells assessed as late apoptotic cells at 16 uM after 24 hrs by Annexin V-FITC/propidium iodide staining based flow cytometric analysis (reference value: 6.5%); assay type: functional
HCT-116 [16] = test: Induction of apoptosis in human HCT-116 cells assessed as necrotic cells at 16 uM after 24 hrs by Annexin V-FITC/propidium iodide staining based flow cytometric analysis (reference value: 0.4%); assay type: functional
HCT-116 [17] = test: Induction of apoptosis in human HCT-116 cells assessed as necrotic cells at 8 uM after 24 hrs by Annexin V-FITC/propidium iodide staining based flow cytometric analysis (reference value: 0.4%); assay type: functional

Compound | IC50 (A549) | IC50 (MDA-MB-231) | IC50 (HCT-116 [1]) | also measured
C=C1C(=O)O[C@@H]2[C@@H](OC(=O)[C@H](C)CC)[C@@](C)(O)C[C@H]3C[C@@H](C)[C@@](O)(C[C@@H]12)O3 | 37.6 µM | 48.9 µM | 21.4 µM | –
C=C1C(=O)O[C@@H]2[C@@H](OC(=O)[C@@H](C)CC)[C@@](C)(O)CCC[C@@H](C)C(=O)C[C@@H]12 | 31.9 µM | 14.6 µM | 6.7 µM | –
C=C1C(=O)O[C@@H]2[C@@H](OC(=O)/C(C)=C\C)[C@@](C)(O)C[C@H]3C[C@@H](C)[C@@](O)(C[C@@H]12)O3 | 17.3 µM | 23.4 µM | 17.8 µM | –
C=C1C(=O)O[C@@H]2[C@@H](OC(=O)CC(C)C)[C@@](C)(O)C[C@H]3C[C@@H](C)[C@@](O)(C[C@@H]12)O3 | 24.5 µM | 27.9 µM | 17.2 µM | –
C=C1C(=O)O[C@@H]2[C@@H](OC(=O)[C@@H](C)CC)[C@@](C)(O)C[C@H]3C[C@@H](C)[C@@](O)(C[C@@H]12)O3 | 24.3 µM | 23.7 µM | 14 µM | –
C=C1C(=O)O[C@@H]2[C@@H](OC(=O)C(C)C)[C@@](C)(O)CCC[C@@H](C)C(=O)C[C@@H]12 | 26.6 µM | 11.6 µM | 8.5 µM | –
C=C1C(=O)O[C@@H]2[C@@H](OC(=O)CC(C)C)[C@@](C)(O)CCC[C@@H](C)C(=O)C[C@@H]12 | 8.4 µM | 6.1 µM | 3.7 µM | viability at 16 µM (HCT-116 [2]): 73.9%; Activity (HCT-116 [3]): 7.3%; viability at 4 µM (HCT-116 [4]): 87.1%; Activity (HCT-116 [5]): 10.5%; Activity (HCT-116 [6]): 5.2%; Activity (HCT-116 [7]): Dose-dependent effect; Activity (HCT-116 [8]): Dose-dependent effect; Activity (HCT-116 [9]): 7.3%; Activity (HCT-116 [10]): 8.3%; Activity (HCT-116 [11]): Dose-dependent effect; Activity (HCT-116 [12]): 0.4%; viability at 8 µM (HCT-116 [13]): 83.8%; Activity (HCT-116 [14]): Dose-dependent effect; Activity (HCT-116 [15]): 15%; Activity (HCT-116 [16]): 0.6%; Activity (HCT-116 [17]): 0.6%
C=C1C(=O)O[C@@H]2[C@@H](OC(=O)C(C)C)[C@@](C)(O)C[C@H]3C[C@@H](C)[C@@](O)(C[C@@H]12)O3 | > 50 µM | > 50 µM | 20.2 µM | –
C=C1C(=O)O[C@@H]2[C@@H](OC(=O)/C(C)=C\C)[C@@](C)(O)CCC[C@@H](C)C(=O)C[C@@H]12 | 14.1 µM | 4.7 µM | 3.2 µM | –
C=C1C(=O)O[C@@H]2[C@@H](OC(=O)[C@H](C)CC)[C@@](C)(O)CCC[C@@H](C)C(=O)C[C@@H]12 | 24.7 µM | 10.6 µM | 5.3 µM | –
